# Laboratory results reported in patent US20250289826A1, “PLPRO PROTEIN INHIBITOR, AND PREPARATION METHOD AND APPLICATION THEREOF” (priority 2022, published 2025).
# Target: PLpro (Severe acute respiratory syndrome coronavirus 2 (2019-nCoV) (SARS-CoV-2), UniProt P0DTD1)
# Test: Assay for PLpro inhibitory activity (Ub-AMC fluorescence; single point inhibition test and IC50 determination)
# Format: biochemical
# Conditions: for IC50: fluorescence measured after 15 min of reaction; for inhibition at 1 µM: read-out: inhibition of PLpro (1 μM), 1 μM test compound, 100 nM PLpro, 10 μM Ub-AMC, 37° C. 30 min; for inhibition of PLpro (1 μM): 1 μM test compound, 100 nM PLpro, 10 μM Ub-AMC, 37° C. 30 min
Structure (SMILES),IC50 [µM],inhibition at 1 µM [%],inhibition of PLpro (1 μM) [%]
Cc1ccc(N2CC3CCC(C2)N3)cc1C(=O)NC1(c2cccc3cc(F)ccc23)CC1 [Example C1],0.083 ± 0.00663,97.7,–
Cc1ccc(N2CCNCC2)cc1C(=O)NC1(c2ccc(F)c3ccccc23)CC1 [Example C2],0.098 ± 0.0121,96.4,–
Cc1ccc(N2CC3CCC(C2)N3)cc1C(=O)NC1(c2ccc(F)c3ccccc23)CC1 [Example C3],0.0401 ± 0.00301,96.2,–
Cc1ccc(N2CC3CCC(C2)N3)cc1C(=O)NC1(c2cccc(-c3cccs3)c2)CC1 [Example C4],–,73.4,–
Cc1ccc(N2CC3CCC(C2)N3C)cc1C(=O)NC1(c2cccc(-c3cccs3)c2)CC1 [Example C5],0.104 ± 0.00602,79.5,–
Cc1ccc(N2CCNCC2)cc1C(=O)NC1(c2cccc(-c3cccs3)c2)CC1 [Example C6],–,56.5,–
Cc1ccc(N2CC3CCC(C2)N3)cc1C(=O)NC1(c2cccc(C(C)(C)C)c2)CC1 [Example C7],–,15,–
Cc1ccc(N2CC3CCC(C2)N3C)cc1C(=O)NC1(c2cccc(C(C)(C)C)c2)CC1 [Example C8],–,37.2,–
Cc1ccc(N2CC(N(C)C)C2)cc1C(=O)NC1(c2cccc3cc(F)ccc23)CC1 [Example C9],0.0521 ± 0.00418,98,–
Cc1ccc(N2CC(N(C)C)C2)cc1C(=O)NC1(c2cccc3cc(F)c(F)cc23)CC1 [Example C10],0.013 ± 0.00276,98.2,–
Cc1ccc(N2CC(N(C)C)C2)cc1C(=O)NC1(c2ccc(Cl)c3ccccc23)CC1 [Example C11],0.0831 ± 0.0127,96.8,–
COc1ccc(C2(NC(=O)c3cc(N4CC(N(C)C)C4)ccc3C)CC2)c2ccccc12 [Example C12],0.0186 ± 0.0023,97.8,–
Cc1ccc(N2CC(N(C)C)C2)cc1C(=O)NC1(c2ccc(Br)c3ccccc23)CC1 [Example C13],0.0798 ± 0.00604,98.5,–
Cc1ccc(N2CC(N(C)C)C2)cc1C(=O)NC1(c2ccc(C)c3ccccc23)CC1 [Example C14],0.205 ± 0.0136,95.1,–
Cc1ccc(N2CC(N(C)C)C2)cc1C(=O)NC1(c2ccc(OC(F)F)c3ccccc23)CC1 [Example C15],–,–,98.0
Cc1ccc(N2CC(N(C)C)C2)cc1C(=O)NC1(c2ccc(F)c3ccccc23)CC1 [Example C16],0.0564 ± 0.00848,89.4,–
Cc1ccc(N2CC(N(C)C)C2)cc1C(=O)NC1(c2cccc3c(Cl)cccc23)CC1 [Example C17],0.0187 ± 0.00529,98.1,–
Cc1ccc(N2CC(N(C)C)C2)cc1C(=O)NC1(c2cccc3c(F)cccc23)CC1 [Example C18],0.0178 ± 0.00194,97.6,–
Cc1ccc(N2CC(N(C)C)C2)cc1C(=O)NC1(c2ccccc2)CC1 [Example C19],–,4.9,–
Cc1ccc(N2CC(N(C)C)C2)cc1C(=O)NC1(c2csc3ccccc23)CC1 [Example C20],0.0765 ± 0.00948,91.9,–
Cc1ccc(N2CC(N(C)C)C2)cc1C(=O)NC1(c2cccc3c2CCCC3)CC1 [Example C21],0.0911 ± 0.00822,90.4,–
Cc1ccc(N2CC(N(C)C)C2)cc1C(=O)NC1(c2ccc(-c3ccccc3)cc2)CC1 [Example C22],–,0,–
Cc1ccc(N2CC(N(C)C)C2)cc1C(=O)NC1(c2cccc(-c3ccccc3)c2)CC1 [Example C23],–,5.8,–
Cc1ccc(N2CC(N(C)C)C2)cc1C(=O)NC1(c2cccc3occc23)CC1 [Example C24],0.423 ± 0.0614,82.3,–
Cc1ccc(N2CC(N(C)C)C2)cc1C(=O)NC1(C2=CCCc3ccccc32)CC1 [Example C25],–,55,–
Cc1ccc(N2CC(N(C)C)C2)cc1C(=O)NC1(c2cccc3ncccc23)CC1 [Example C27],0.0976,–,88.3
Cc1ccc(N2CC(N(C)C)C2)cc1C(=O)NC1(c2ccnc3ccccc23)CC1 [Example C28],0.129,89.7,–
